Laboratory results reported in ChEMBL document CHEMBL1125779, “Synthesis and evaluation of some nitrobenzenesulfonamides containing nitroisopropyl and (ureidooxy)methyl groups as novel hypoxic cell selective cytotoxic agents” (J Med Chem, 1991).

Experiment: Partition coefficient was measured in n-octanol at the PH 7.4 buffer
Type: physicochemical
Conditions: octanol/water

Partition coefficient	SMILES
0.37	CN(CCN)S(=O)(=O)c1ccc(C(C)(C)[N+](=O)[O-])c([N+](=O)[O-])c1
0.28	CNCCN(C)S(=O)(=O)c1ccc(CONC(N)=O)c([N+](=O)[O-])c1
0.4	O=[N+]([O-])c1nccn1CC(O)CN1CCCCC1 (stereo not drawn) [PIMONIDAZOLE]
